Measured values published in PMC11743026, “Cortisol regulates neonatal lung development via Smoothened” (Respiratory Research, 2025).

Experiments:
[1] = target: T1, Smoothened (SMO) (Homo sapiens, UniProt Q99835, Y394F); assay: free cortisol competes with biotinylated cholesterol beads for purified Y394F SMO; format: binding
T1 construct: purified Y394F SMO

[2] = target: T1, Smoothened (SMO); assay: pull-down of purified Y394F SMO on biotinylated cholesterol beads; format: binding
[3] = target: T2, Smoothened (SMO) (Homo sapiens, UniProt Q99835, L112A); assay: pull-down of purified L112A SMO or CRD on biotinylated cholesterol beads; format: binding
T2 construct: purified L112A SMO; also the L112A CRD fragment
T2 sequence (Q99835 28-787 L112A): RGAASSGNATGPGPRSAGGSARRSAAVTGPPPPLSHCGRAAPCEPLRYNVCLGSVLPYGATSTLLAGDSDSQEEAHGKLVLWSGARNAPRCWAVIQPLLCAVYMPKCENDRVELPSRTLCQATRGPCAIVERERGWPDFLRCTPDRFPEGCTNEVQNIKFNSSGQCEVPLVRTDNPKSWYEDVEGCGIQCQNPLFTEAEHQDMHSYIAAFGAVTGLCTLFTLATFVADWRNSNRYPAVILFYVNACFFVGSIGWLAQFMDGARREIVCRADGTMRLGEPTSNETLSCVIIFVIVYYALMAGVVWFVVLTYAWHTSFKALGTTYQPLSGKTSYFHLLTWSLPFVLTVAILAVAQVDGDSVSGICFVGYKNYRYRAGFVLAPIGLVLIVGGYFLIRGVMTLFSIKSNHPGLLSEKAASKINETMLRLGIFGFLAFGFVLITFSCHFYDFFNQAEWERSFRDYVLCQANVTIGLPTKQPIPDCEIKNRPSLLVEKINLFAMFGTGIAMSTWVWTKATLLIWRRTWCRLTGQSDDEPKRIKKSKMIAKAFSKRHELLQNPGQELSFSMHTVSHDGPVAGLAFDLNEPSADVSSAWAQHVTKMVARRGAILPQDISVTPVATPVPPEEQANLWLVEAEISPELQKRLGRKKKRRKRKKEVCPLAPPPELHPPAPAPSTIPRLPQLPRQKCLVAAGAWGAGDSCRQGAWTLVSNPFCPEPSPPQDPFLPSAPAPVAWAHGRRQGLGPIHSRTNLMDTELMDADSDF

[4] = target: T3, Smoothened (SMO) (Homo sapiens, UniProt Q99835); assay: Asp-evoked current in HeLa cells expressing WT SMO; effect lost with L112A; format: cell-based
T3 construct: full-length SMO expressed in HeLa cells
T3 sequence (Q99835 28-787): as the sequence (Q99835 28-787 L112A) above, with A85L counted along it

T1 sequence (Q99835 28-787 Y394F): as the sequence (Q99835 28-787 L112A) above, with A85L, Y367F counted along it

C[C@]12CCC(=O)C=C1CC[C@@H]1[C@@H]2[C@@H](O)C[C@@]2(C)[C@H]1CC[C@]2(O)C(=O)CO [Cort, cortisol]
free cortisol competes with biotinylated cholesterol beads for purified Y394F SM [1]: cortisol remained inhibiting the CB binding to the mutated SMO in a dose-dependent manner

CC(C)CCC[C@@H](C)[C@H]1CC[C@H]2[C@@H]3CC=C4C[C@@H](O)CC[C@]4(C)[C@H]3CC[C@]12C [Chol, cholesterol]
pull-down of purified Y394F SMO on biotinylated cholesterol beads [2]: mutation of the Y394 to F394 did not change CB binding to the SMO | pull-down of purified L112A SMO or CRD on biotinylated cholesterol beads [3]: The CB remained binding to the purified WT and L112A SMO

C[C@]12C[C@H](O)[C@H]3[C@@H](CCC4=CC(=O)CC[C@@]43C)[C@@H]1CC[C@@H]2C(=O)CO [corticosterone]
Asp-evoked current in HeLa cells expressing WT SMO; effect lost with L112A [4]: The corticosterone inhibition was not observed in the L112A mutant SMO cells
